Assay results taken from patent US8188130B1, “Anti-cancer hydantoin compounds and methods” (University of Louisiana at Monroe, priority 2008, dated 2012).
Where no end group is shown, it is not given here.

How the values were obtained:
PC-3M cells [1] = test: Invasion assay (Matrigel Boyden invasion chambers); format: cell-based; details: 24 hours, FIG. 2
Protocol: Invasion assays were used to identify compounds with antimetastatic activity. Invasion assays were performed on a control group, a calcitonin (CT) stimulated group, a drug treated group and a group that was both drug treated and CT stimulated. The assay employed two-compartmented Boyden invasion chambers sold under the trademark MATRIGEL. The assay conditions were as follows: exponentially growing PC cells were serum-starved for 24 hours with basal incubation medium. Serum-starved cells were then seeded at a density of 25×10^3 cells/well in the upper insert of the invasion chamber. The lower chamber received the chemoattractant medium, which consisted of 90% basal RPMI medium and 10% conditioned medium from the cultures of PC-3M cells expressing constitutively active Gsa protein as described in Chien, J., Wong, E., Nikes, E., Noble, M. J., Pantazis, C. G., and Shah, G. V. (1999) Oncogene 18(22), 3376-3382 which is incorporated herein by reference. The incubations were carried out for 24 hours, after which the basement matrix protein or Matrigel™ (along with non-invading cells) was scraped off with cottonswabs, and the outer side of the insert was fixed and stained using hemaoxylin staining sold under the trademark Diff Quick (Dade Behring Diagnostics, Aguada, PR). The number of cells migrated on the outer bottom side of the insert were counted under the microscope in six or more randomly selected fields (magnification: 100×). The final results were expressed as mean+/−SEM number of invaded cells per 100× field. Each experiment was done in triplicates, and the experiment was repeated twice. […] To correct this, the growth rate was determined for PC-3M cells under identical culture conditions. 25×10^3 cells were plated at hourly intervals in six-well dishes and cultured for 1-24 hours. Mean percent increase in the cell number was determined by counting the net increase in the number of cells. […] This correction was applied to the results of invasion assays.

PC-3M cells [2] = test: Growth rate of PC-3M cells by cell counting (correction for invasion assay); format: cell-based; details: vehicle control=1; cultured 1-24 hours
Protocol: Invasion assays were used to identify compounds with antimetastatic activity. Invasion assays were performed on a control group, a calcitonin (CT) stimulated group, a drug treated group and a group that was both drug treated and CT stimulated. The assay employed two-compartmented Boyden invasion chambers sold under the trademark MATRIGEL. The assay conditions were as follows: exponentially growing PC cells were serum-starved for 24 hours with basal incubation medium. Serum-starved cells were then seeded at a density of 25×10^3 cells/well in the upper insert of the invasion chamber. The lower chamber received the chemoattractant medium, which consisted of 90% basal RPMI medium and 10% conditioned medium from the cultures of PC-3M cells expressing constitutively active Gsa protein as described in Chien, J., Wong, E., Nikes, E., Noble, M. J., Pantazis, C. […] The number of cells migrated on the outer bottom side of the insert were counted under the microscope in six or more randomly selected fields (magnification: 100×). The final results were expressed as mean+/−SEM number of invaded cells per 100× field. […] To correct this, the growth rate was determined for PC-3M cells under identical culture conditions. […] Mean percent increase in the cell number was determined by counting the net increase in the number of cells. […]

[3] = tested on: PC-3M cells over expressing CT; test: Xenograft testing, orthotopic implant in athymic nude mice; format: in vivo; details: compound 1 200 μg/day, compound 2 40 μg/day; for average life-expectancy: intraperitoneally every other day, untreated 54 days, ± SEM; for tumor growth in secondary organs (metastases): intraperitoneally, FIG. 5
Description: In vivo xenograft testing was done on athymic nude mice to measure the anti-cancer effect of various compounds. PC-3M prostate cells were used that contain a red fluorescence protein from gene transfer to facilitate tracking of cancer cells. The red fluorescence protein used is described in Yang, M., Baranov, E., Wang, J. W., Jiang, P., Wang, X., Sun, F. X., Bouvet, M., Moossa, A. R., Penman, S., and Hoffman, R. M. (2002) Proc Natl Acad Sci U S A 99(6), 3824-3829, which is incorporated herein by reference. 1×10^5 PC-3M cells over expressing CT were implanted in 30 day old mice orthotopically, that is the prostate cancer cells were implanted into the prostate of the mice. The cells were then allowed to grow in their native environment allowing for metastasis into other organs such as the lymph nodes, bones and lungs. The mice, other than the control mice were injected intraperitoneally every other day. Dosing rates were 200 μg/day or 5 μg/g body weight/day-intrapertonieally for compound 1 and 40 μg/day or 1 μg/g body weight/day-intraperitoneally for compound 2. Tumor growth was measured by fluorescence imaging and the mice were sacrificed upon signs of morbidity such as immobility and high tumor burden.

prostate tumors = test: Testing of transgenic LPB-Tag mice that spontaneously form prostate tumors; format: in vivo; details: 80 μg/week intraperitoneally
Description: In vivo testing was done on transgenic mice that spontaneously form prostate tumors to measure the anti-cancer effect of compound 2. The mice used were LPB-Tag mice of the type described in Kasper, S., and Smith, J. A., Jr. (2004) J Urol 172(1), 12-19 which is incorporated herein by reference. The mice were originally developed by Dr. Robert Matusik of Vanderbilt University. LPB-Tag mice are generated by the targeted expression of SV40 large T-antigen (Tag) in the prostate using androgen-regulated, prostate-specific large probasin (LPB) gene promoter. The mice develop PIN lesions as well as extensive prostate adenocarcinomas in adulthood. The mice had their p53 gene knocked out and T-antigen selectively targeted to the prostate. Therefore, the mice begin to develop prostate tumors spontaneously as they approached the age of 50 days (adulthood), the tumors gradually grew and became very large at the age of 90 days. Mice were sacrificed around day 90 and their prostates and other organs were harvested for studying tumor characteristics and histology. Compound 2 was delivered at a dosing of 80 μg/week or 2 μg/g body weight/week-intraperitoneally. […] These tests indicate that compounds of this invention may be used as a chemopreventive for high risk patients.

PC-3M cells [4] = test: MTT assay, cell proliferation; format: cell-based
Protocol: MTT assays were used to measure effect of the tested drugs on tumor growth. MTT assays were performed on a control group, a calcitonin (CT) stimulated group, a group treated with compound 1 (drug treated), and a group that was both drug treated and CT stimulated. Conditions for the MTT assay were as follows: Exponentially growing cells were plated in a 96-well plate at a density of 8×10^3 cells per well, and cultured for 24 hours in complete growth medium (RPMI 1640 containing 10% fetal bovine, 10 mM HEPES, 4 mM L-glutamine, 100 IU/ml penicillin G and 100 μg/ml streptomycin). The complete growth medium was then replaced with 100 μl of basal incubation medium (RPMI 1640 containing 0.1% BSA, 10 mM HEPES, 4 mM L-glutamine, 100 IU/ml penicillin G and 100 μg/ml streptomycin). The cells were then treated with test compounds (dissolved in basal incubation medium), and the culture was continued at 37° C. under 5% CO2 for 24 hours. The cells were then treated with MTT solution at 37° C. for 4 h, and the color reaction was stopped with the stop solution (10% sodium dodecyl sulfate solution in 0.01 M hydrochloric acid) (100 μl/well). The incubation at 37° C. was continued until the formazan product was completely dissolved. Absorbance of the samples was determined at 595 nm with an ELISA plate reader (Bio-Rad, Hercules, Calif.).

[5] = tested on: PC-3M prostate cancer cell line; test: In vitro metastasis assay (spheroid disaggregation, radial migration); format: cell-based
Protocol: In vitro metastasis assays were conducted to determine the anti-metastatic effect of various compounds. This assay involves preparation of spheroids approximately […] in diameter of cancer cells cultured on an extracellular matrix. In 24 hours, only metastatic cells disaggregate from the spheroid and start radial migration. Thus, lower measurements of radial migration are indicative of greater effectiveness of the drug/compound. Spheroids were prepared from single cell suspension of prostate cell lines as described before in Gondi, C. S., Lakka, S. S., Yanamandra, N., Olivero, W. C., Dinh, D. H., Gujrati, M., Tung, C. H., Weissleder, R., and Rao, J. S. (2004) Cancer Res 64(12), 4069-4077 and in Thomas, S., Chiriva-Internati, M., and Shah, G. V. (2007) Clin Exp Metastasis 24(5), 363-377 both of which are incorporated herein by reference. 5×10^4/ml cells in RPMI 1640 serum-free medium were placed on 96-well low-attachment tissue culture plates. The plates were rocked on gyrotory shaker in a CO2 incubator at 37° C. for 2 days, at the end of which the spheroids measuring 150-300 μm in diameter (˜4×10^4 cells/spheroid) were formed. A single spheroid was then placed in the center of each well of extracellular-matrix-coated 24-well microplate in […] of serum-free medium. From previous studies, it was determined that 1 hour was an appropriate time for spheroids to begin adhering to an extracellular matrix. Thus, t=0 was set as 1 hour from initial plating, so that if the plate was not disturbed, the spheroids would not move from their location at the time of plating. Spheroids were digitally photographed at t=0, cultured at 37° C. for 48 h and then re-photographed. […] The diameter of the area covered with cells migrated from the spheroids was measured in a microscope calibrated with a stage and ocular micrometer. The radial distance of migration was calculated after subtraction of the mean initial spheroidal diameter at t=0.

Row | Compound | invasion of PC-3M cells (PC-3M cells [1]; CT 50 nM) | relative CT-induced increase in cell number, pooled results of all time points (PC-3M cells [2]) | average life-expectancy [3] [days] | tumor growth in secondary organs (metastases) [3] | increased survival (prostate tumors) | decrease of tumor size measured at necropsy compared to diluents treated mice (prostate tumors; sacrificed around day 90) [%] | rate of CT stimulated cell proliferation (PC-3M cells [4]; 50 μM, 24 hours, CT stimulated, FIG. 1) | rate of baseline cell proliferation (PC-3M cells [4]; 50 μM, 24 hours, baseline (no CT), FIG. 1) | dosage rate until which no cytotoxic effect on PC-3M cells (PC-3M cells [4]; PC-3M cells) [µM] | baseline invasion (PC-3M cells [1]; 50 μM, no CT) | CT-stimulated invasion (PC-3M cells [1]; 50 μM, CT 50 nM) | dose until which no cytotoxicity [5] [µM] | disaggregation and migration of cells from spheroids ([5]; 50 μM) | effective dose range ([5]; multiple doses, distances migrated by the cells) [µM]
1 | calcitonin (CGNLSTCMLGTYTQDFNKFHTFPQTAIGVGAP; ends and bridges not checked; cysteine pairing not given here; UniProt P01258 85-116, looked up) [CT, calcitonin (CT), used to stimulate proliferation, invasion and metastasis of PC-3M cells, reference compound] | significantly increased | 1.19 |  |  |  |  |  |  |  |  |  |  |  | 
2 | CCSc1ccc(/C=C2\NC(=O)NC2=O)cc1 [compound 2, (Z)-5-(4-S-ethylbenzylidene)imidazolidine-2,4-dione] |  |  | 66 ± 1 | completely prevented tumor growth in most secondary organs | at least 1 week | 62 |  |  |  |  |  |  |  | 
3 | O=C1NC(=O)/C(=C/c2ccc(O)cc2)N1 [compound 1, (Z)-5-(4-hydroxybenzylidene)imidazolidine-2,4-dione] |  |  | 61.44 | completely prevented tumor growth in most secondary organs |  |  | moderate but significant decline | moderate but significant decline | ≥ 500 | did not affect baseline invasion | almost abolished CT-stimulated invasion | ≥ 500 | did not disaggregate or migrate | 25 to 200
